Article PMC13439108, “An antibody–drug conjugate active against antibiotic-resistant Neisseria gonorrhoeae” (Proceedings of the National Academy of Sciences of the …, 2026)
≈ marks a conversion by molar mass, not a printed value. Like-named read-outs stand apart in the source and are kept apart here. Where a SMILES comes first, the peptide text is derived from it. [ ]: non-standard residue; d: D form. The star is where a group is joined. d(aIle) = CC[C@H](C)[C@@H](N)C(=O)O; dDab = NCC[C@@H](N)C(=O)O; Octanoyl = CCCCCCCC(=O)*; Dab = NCC[C@H](N)C(=O)O; AEEA = NCCOCCOCC(=O)O

Columns and labels:
N. gonorrhoeae FA1090 [1] = settings: microdilution in FB, ~5 × 10^4 CFU, 24 hr, 37°C, 5% CO2
Experimental: (§1) columns (ThermoFisher scientific). Activated mAb was added to 0.9 mg of Oct-TriA1 analogues (synthesised by ISCA Biochemicals, UK) and incubated at room temperature for 60 min. ADCs were dialysed using slide-A-Lyzer cassette (20K MWCO, ThermoFisher scientific) into PBS overnight at 4 °C […]
(§2) MALDI-TOF MS analysis for determination of intact mass mAbs or ADCs with a concentration of 1 mg/mL were acidified with 1% trifluoroacetic acid and mixed with Super DHB matrix, 1 μl was spotted onto an MTP Anchorchip 600/384. For every mAb, three sample spots were prepared from the same solution using three protocols advised by the manufacturer. MALDI-TOF measurements were performed on a Microflex LRF mass spectrometer, equipped with a 60Hz nitrogen laser at 337nm. Number of peptides conjugated was calculated using the MALDI-TOF molecular weights (MW) [MW = M+] of each ADC, the unconjugated antibody (mAb), and the molecular weights of Oct-TriA1 analogues using the following equation.
(§3) Number of peptides = MW ADC − MW mAb […]
(§4) Determination of Oct-TriA1 Minimum Inhibitory Concentration (MIC)
(§5) N. gonorrhoeae was resuspended in PBS to an ODA600 1.0, and ̴5 × 10^4 CFU added to wells of a microdilution plate containing dilutions of antimicrobials in FB. Plates were incubated for 24 hr at […]
(§6) 37°C, in 5% CO2 then 10 μl aliquots plated onto GCB agar. The MIC was defined as the lowest concentration of an antimicrobial that prevented bacterial growth. […]
(§7) Peptide concentration in ADC preparations
(§8) Peptide concentrations for ADCs were calculated from the antibody concentration, the drug-to-antibody ratio (DAR), and the peptide molecular weight using the following formula:
(§9) Conc. peptide (µg/mL) = Conc. ADC (µg/mL) × DAR x MWpeptide (Da) […]
(§10) Where Conc. ADC is the ADC/ mAb concentration, MWADC is the mAb molecular weight (150 kDa), MWpeptide is the peptide molecular weight and DAR is the average number of peptides per conjugate.
(§11) This formula was used to convert ADC concentrations to peptide concentrations for all assays. […]

[2] = tested on: N. gonorrhoeae FA1090ΔIgAP; settings: microdilution in FB, ~5 × 10^4 CFU, 24 hr, 37°C, 5% CO2
Experimental: as §1, §2, §3, §4, §5, §6, §7, §8, §9, §10, §11

[3] = tested on: N. gonorrhoeae FA1090ΔmtrE; settings: microdilution in FB, ~5 × 10^4 CFU, 24 hr, 37°C, 5% CO2
Experimental: as §1, §2, §3, §4, §5, §6, §7, §8, §9, §10, §11

N. gonorrhoeae MS11 = settings: microdilution in FB, ~5 × 10^4 CFU, 24 hr, 37°C, 5% CO2
Experimental: as §1, §2, §3, §4, §5, §6, §7, §8, §9, §10, §11

N. gonorrhoeae MS11ΔIgAP = settings: microdilution in FB, ~5 × 10^4 CFU, 24 hr, 37°C, 5% CO2
Experimental: as §1, §2, §3, §4, §5, §6, §7, §8, §9, §10, §11

N. gonorrhoeae MS11ΔmtrE = settings: microdilution in FB, ~5 × 10^4 CFU, 24 hr, 37°C, 5% CO2
Experimental: as §1, §2, §3, §4, §5, §6, §7, §8, §9, §10, §11

N. gonorrhoeae WHO F = settings: microdilution in FB, ~5 × 10^4 CFU, 24 hr, 37°C, 5% CO2, lowest concentration preventing growth
Experimental: as §1, §2, §3, §4, §5, §6, §7, §8, §9, §10, §11

N. gonorrhoeae WHO G = settings: microdilution in FB, ~5 × 10^4 CFU, 24 hr, 37°C, 5% CO2
Experimental: as §1, §2, §3, §4, §5, §6, §7, §8, §9, §10, §11

N. gonorrhoeae WHO K = settings: microdilution in FB, ~5 × 10^4 CFU, 24 hr, 37°C, 5% CO2
Experimental: as §1, §2, §3, §4, §5, §6, §7, §8, §9, §10, §11

N. gonorrhoeae WHO L = settings: microdilution in FB, ~5 × 10^4 CFU, 24 hr, 37°C, 5% CO2
Experimental: as §1, §2, §3, §4, §5, §6, §7, §8, §9, §10, §11

N. gonorrhoeae WHO M = settings: microdilution in FB, ~5 × 10^4 CFU, 24 hr, 37°C, 5% CO2
Experimental: as §1, §2, §3, §4, §5, §6, §7, §8, §9, §10, §11

N. gonorrhoeae WHO N = settings: microdilution in FB, ~5 × 10^4 CFU, 24 hr, 37°C, 5% CO2
Experimental: as §1, §2, §3, §4, §5, §6, §7, §8, §9, §10, §11

N. gonorrhoeae WHO O = settings: microdilution in FB, ~5 × 10^4 CFU, 24 hr, 37°C, 5% CO2
Experimental: as §1, §2, §3, §4, §5, §6, §7, §8, §9, §10, §11

N. gonorrhoeae WHO P = settings: microdilution in FB, ~5 × 10^4 CFU, 24 hr, 37°C, 5% CO2
Experimental: as §1, §2, §3, §4, §5, §6, §7, §8, §9, §10, §11

[4] = tested on: N. gonorrhoeae G97687 (MDR isolate); settings: G97687, MDR isolate resistant to ESCs and azithromycin, microdilution in FB, 24 hr, 37°C, 5% CO2
Experimental: as §4, §5, §6, §7, §8, §9, §10, §11

human erythrocytes = assay: Hemolysis of human erythrocytes; type: cell-based; settings: concentration of peptide or ADC that lyses 50% of erythrocytes; washed human blood 0.5%, 37°C, 1 hr, OD415; melittin 2.5 µM = 100%, PBS = 0%; n = 3
Experimental: For hemolysis, whole human blood (1 ml; K2EDTA; Cambridge Bioscience) was washed in PBS then 0.5% added to an equal volume of peptides or ADCs in 96-well V-bottomed polypropylene plates and incubated at 37°C for 1 hr. Cells were pelleted at 1,000 × g for 10 min and the absorbance at OD415 measured. Positive (melittin, 2.5 µM, Merck Life Science) and negative (PBS) controls were normalised as 100 and 0% hemolysis, respectively. […]

HK-2 cells [5] = assay: LDH release cytotoxicity; type: cell-based, human; settings: n = 3; for LDH (EC50) 4 h: 2 × 10^4 cells/well, LDH release OD490, 4 h
Experimental: HK-2 cells (CRL-2190™, Americab Type Culutre Collection (ATCC)), a proximal renal tubule cell(7), and End1/E6E7 (CRL-2615™, ATCC) upper cervical epithelial cells(8) were cultured in Keratinocyte Serum Free Medium (Invitrogen, Life Technologies Ltd.) with human recombinant EGF (5 ng ml-1) and bovine pituitary extract (0.05 mg ml−1) at 37°C in 5% CO2. Cells were seeded in 96-well plates (Corning, Polystyrene) at a density of 2 × 10^4 cells/well 24 hr prior; Triton-X-100 (0.1%) and Digitonin (30 μg ml−1) were used as controls. Lactate dehydrogenase (LDH) release was measured using the Biovision kit; the OD490 was assessed in a SpectraMax M5 plate reader. […]

HK-2 cells [6] = assay: MTT cell viability; type: cell-based, human; settings: n = 3; for MTT (EC50) 4 h: MTT reduction OD570, 4 h
Experimental: HK-2 cells (CRL-2190™, Americab Type Culutre Collection (ATCC)), a proximal renal tubule cell(7), and End1/E6E7 (CRL-2615™, ATCC) upper cervical epithelial cells(8) were cultured in Keratinocyte Serum Free Medium (Invitrogen, Life Technologies Ltd.) with human recombinant EGF (5 ng ml-1) and bovine pituitary extract (0.05 mg ml−1) at 37°C in 5% CO2. […]
Cell viability was assessed by 3-(4,5-dimethylthiazol-2-yl)-2,5-diphenyl-2H-tetrazolium bromide (MTT) assay(9); 200 µl fresh cell media and 250 µg of MTT was added to cells. Plates were Incubated at 37 °C, 5% CO2 for 3 hr then 200 µl of DMSO was added to wells with 25 µl glycine buffer (0.1 M glycine, 0.1 M NaCl pH 10.5) and shaken at 1000 r.p.m. for 10 min. Absorbance was read at OD570 nm. Cell viability was calculated as (sample absorbance – cell free blank/media control absorbance) x100.

N. gonorrhoeae FA1090 [7] = assay: microbe, parasite or virus in culture; settings: Neisseria gonorrhoeae
Experimental: 37°C, in 5% CO2 then 10 μl aliquots plated onto GCB agar. The MIC was defined as the lowest concentration of an antimicrobial that prevented bacterial growth.
Determination of N. gonorrhoeae resistance to Oct-TriA1
Single colonies of N. gonorrhoeae FA1090 were inoculated into 2 mL of FB media supplemented with 1% Vitox (Oxoid) and grown overnight. After 24 hours, 240 µl of a 1/ 5,000 dilution of FA1090 in 2x FB was added to a 48-well plate containing 2-fold dilutions of either Oct-TriA1-c (final concentration, 12.5 µg/ml to 0.2 µg/ml) or ciprofloxacin (final concentration, 16.4 to 0.001 µg/ml) in a total volume of 480
µl. Plates were incubated at 37 °C, 5% CO2 with shaking (180 rpm). After 24 hours, ODA600 of each well […]
to fresh media containing all concentrations of antimicrobials for a total of 35 days. […]

## CCCCCCCC(=O)N[C@@H](C(=O)N[C@H](CCN)C(=O)NCC(=O)N[C@H](CO)C(=O)N[C@H](Cc1c[nH]c2ccccc12)C(=O)N[C@@H](CO)C(=O)N[C@@H](CCN)C(=O)N[C@H](CCN)C(=O)N[C@@H](Cc1ccccc1)C(=O)N[C@@H](CCC(=O)O)C(=O)N[C@H](C(=O)N[C@@H](C(=O)N[C@@H](C)C(=O)O)[C@@H](C)CC)C(C)C)C(C)C [Oct-TriA1, reference compound]
N. gonorrhoeae FA1090 [1]
  MIC: 0.2 µg/mL (≈ 0.132 µM)
[2]
  MIC: 0.1 µg/mL (≈ 0.0658 µM)
[3]
  MIC: 0.1 µg/mL (≈ 0.0658 µM)
N. gonorrhoeae MS11
  MIC: 0.78 µg/mL (≈ 0.513 µM)
N. gonorrhoeae MS11ΔIgAP
  MIC: 0.39 µg/mL (≈ 0.256 µM)
N. gonorrhoeae MS11ΔmtrE
  MIC: 0.2 µg/mL (≈ 0.132 µM)
N. gonorrhoeae WHO F
  MIC: 0.2 µg/mL (≈ 0.132 µM)
N. gonorrhoeae WHO G
  MIC: 0.39 µg/mL (≈ 0.256 µM)
N. gonorrhoeae WHO K
  MIC: 0.78 µg/mL (≈ 0.513 µM)
N. gonorrhoeae WHO L
  MIC: 0.2 µg/mL (≈ 0.132 µM)
N. gonorrhoeae WHO M
  MIC: 0.39 µg/mL (≈ 0.256 µM)
N. gonorrhoeae WHO N
  MIC: 0.39 µg/mL (≈ 0.256 µM)
N. gonorrhoeae WHO O
  MIC: 0.39 µg/mL (≈ 0.256 µM)
N. gonorrhoeae WHO P
  MIC: 0.39 µg/mL (≈ 0.256 µM)
[4]
  MIC: 0.2 µg/mL (≈ 0.132 µM)
[4]; listed as Oct-Tri1
  MIC: 0.78 µg/mL (≈ 0.513 µM)
Human erythrocytes
  Hemolysis (HC50): 39.4 µg/mL
HK-2 cells [5]
  LDH (EC50) 4 h: 23.19 µg/mL
HK-2 cells [5]; LDH release OD490, 24 h
  LDH (EC50) 24 h: 14.14 µg/mL
HK-2 cells [5]; LDH release OD490, 48 h
  LDH (EC50) 48 h: <0.1 µg/mL
HK-2 cells [6]
  MTT (EC50) 4 h: 21.15 µg/mL
HK-2 cells [6]; MTT reduction OD570, 24 h
  MTT (EC50) 24 h: 7.93 µg/mL
HK-2 cells [6]; MTT reduction OD570, 48 h
  MTT (EC50) 48 h: 8.07 µg/mL

## O=C(O)c1cn(C2CC2)c2cc(N3CCNCC3)c(F)cc2c1=O [ciprofloxacin, reference compound]
N. gonorrhoeae FA1090 [7]; FA1090, 24 h, read-out: MIC at start of resistance evolution
  MIC: 0.002 µg/mL (≈ 0.00604 µM)
N. gonorrhoeae FA1090 [7]; FA1090, read-out: MIC after 35 d of resistance evolution
  MIC: 0.26 µg/mL (≈ 0.785 µM)

## CCCCCCCC(=O)N[C@@H](C(=O)N[C@H](CCN)C(=O)NCC(=O)N[C@H](CO)C(=O)N[C@H](Cc1c[nH]c2ccccc12)C(=O)N[C@@H](CO)C(=O)N[C@@H](CCN)C(=O)N[C@H](CCN)C(=O)N[C@@H](Cc1ccccc1)C(=O)N[C@@H](CCC(=O)O)C(=O)N[C@H](C(=O)N[C@@H](C(=O)N[C@@H](C)C(=O)NCCOCCOCC(=O)N[C@@H](CC(C)C)C(=O)N1CCC[C@H]1C(=O)N[C@@H](CCCNC(=N)N)C(=O)N1CCC[C@H]1C(=O)N1CCC[C@H]1C(=O)N[C@@H](C)C(=O)N1CCC[C@H]1C(=O)N[C@H](C(=O)N[C@@H](Cc1ccccc1)C(=O)N[C@@H](CO)C(=O)NCCOCCOCC(=O)N[C@@H](CS)C(N)=O)C(C)C)[C@@H](C)CC)C(C)C)C(C)C [cl-Oct-TriA1] (Octanoyl-[dV][dDab]G[dS][dW]S[Dab][dDab]FEV[d(aIle)]A[AEEA]LPRPPAPVFS[AEEA]C-NH2)
HK-2 cells [5]
  LDH (EC50) 4 h: >400 µg/mL
HK-2 cells [6]
  MTT (EC50) 4 h: 315.43 µg/mL
